# Test results as given in patent US20050186659A1, “Methods for protein purification” (priority 2004, published 2005).
# Values joined by “and” are separate entries in the source; they are usually repeats but may differ in a detail not shown here. Equal entries are not always repeated.
# Assays:
# 11β-HSD1 [1] = biological target: T1, 11β-HSD1 (Homo sapiens, UniProt P28845); assay: Ki values for 11β-HSD1 (stated, no method given); format: biochemical; conditions: range in words only
# Target sequence in this assay (P28845 24-292): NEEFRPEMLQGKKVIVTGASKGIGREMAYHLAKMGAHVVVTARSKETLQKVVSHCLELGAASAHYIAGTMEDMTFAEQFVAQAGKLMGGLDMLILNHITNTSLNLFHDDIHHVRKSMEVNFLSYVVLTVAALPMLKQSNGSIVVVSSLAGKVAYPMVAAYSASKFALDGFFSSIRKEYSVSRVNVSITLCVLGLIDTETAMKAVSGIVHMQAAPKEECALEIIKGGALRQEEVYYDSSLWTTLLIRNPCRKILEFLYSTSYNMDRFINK
# guinea pig 11β-HSD1 = biological target: T2, guinea pig 11β-HSD1 (Cavia porcellus, UniProt Q6QLL4); assay: GuHCl-induced inactivation (conformational stability) monitored by cortisol dehydrogenation activity; format: biochemical; conditions: guinea pig enzyme, control (no addition) 0.51
# T2 construct: the first 23 amino acid residues (19 for the rat variant) of the protein, which includes the distal N-terminus and the transmembrane domain, were omitted; His6 (N); made in house; host or cells: E. coli BL21(DE3), pET28a derivative, fermentor culture
# Description: (§1) Stability measurements. The conformational stability was examined by monitoring GuHCl-induced solvent inactivation of 11β-HSD1. Protein solutions (5-10 μM) were incubated overnight at room temperature in various concentrations of GuHCl (0-2 M) buffered with 50 mM Tris-HCl, pH 8.0. The inactivation of the enzyme was monitored by the decrease in dehydrogenase activity (25 μM cortisol, 50 μM NADP^+) using the fluorimetric assay described above. The stability data were analyzed by nonlinear regression, fitting to the equation described by Santoro and Bolen (24) using the program GraFit, version 5.0 (Erithacus Software, Staines, UK). The midpoint concentration of inactivation, Cm, was determined from the ratio, ΔG^H2O/m, of the fitted parameters.
# 11β-HSD1 [2] = biological target: T1, 11β-HSD1; assay: Active site titration, cortisol dehydrogenation by 11β-HSD1 with increasing inhibitor; format: biochemical; set-up: the first 23 amino acid residues (19 for the rat variant) of the protein, which includes the distal N-terminus and the transmembrane domain, were omitted; made in house; host or cells: E. coli BL21(DE3), pET28a derivative, co-expression of GroEL/ES; conditions: dehydrogenase reaction, 50 μM cortisol, 100 μM NADP+; fitted to Morrison equation; read-out: Ki^app
# Description: FIG. 3 is a graph depicting active site titration of highly purified, homogenous human 11β-HSD1. Fractional velocities (vi/v0) of cortisol dehydrogenation by 11β-HSD1 were determined in presence of increasing amounts of the selective and potent inhibitor BVT.24829. […] Total protein concentration was determined by amino acid analysis (triplicate measurements) assuming a molecular mass of 31.9 kDa for the His-tagged enzyme.
# Enzyme activity measurements. The dehydrogenase activity of 11β-HSD1 was assayed at 25° C. in 50 mM Tris/Cl, pH 7.4, using 50 μM cortisol and 100 μM NADP^+, with a K2 spectrofluorimeter (ISS, Champaign, Ill.). The excitation and emission wavelengths were 340 nm and 460 nm, respectively. To ensure unambiguous initial rate measurements, the enzyme addition was adjusted to give a linear fluorescence increase for at least the first 2 min of reaction. Reaction rates were calculated before and after the addition of purified 11β-HSD1 to give enzymatic rates of NADP^+ reduction. The relationship between the increase of fluorescence and the rate of NADP^+ reduction was established by generating a calibration curve using freshly prepared solutions of NADPH (0-25 μM). […] Substrate and product were monitored by UV absorbance at 240 nm and concentrations were calculated by referral to corresponding calibration curves. […]
# Target sequence in this assay (P28845 with tags, fused parts or gaps): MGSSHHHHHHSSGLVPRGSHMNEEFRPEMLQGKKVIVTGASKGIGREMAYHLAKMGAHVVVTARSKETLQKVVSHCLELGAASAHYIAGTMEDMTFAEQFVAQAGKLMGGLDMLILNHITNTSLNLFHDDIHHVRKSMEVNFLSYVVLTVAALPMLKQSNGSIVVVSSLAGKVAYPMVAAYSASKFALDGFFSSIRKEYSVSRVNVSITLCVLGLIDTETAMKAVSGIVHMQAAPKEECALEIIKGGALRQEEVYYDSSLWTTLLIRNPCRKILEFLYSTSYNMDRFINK
# 11β-HSD1 [3] = biological target: T1, 11β-HSD1; assay: GuHCl-induced inactivation (conformational stability) monitored by cortisol dehydrogenation activity; format: biochemical; set-up: the first 23 amino acid residues (19 for the rat variant) of the protein, which includes the distal N-terminus and the transmembrane domain, were omitted; made in house; host or cells: E. coli BL21(DE3), pET28a derivative, co-expression of GroEL/ES; conditions: human enzyme, control (no addition) 0.25
# Description: FIG. 4 is a graph depicting inactivation of recombinant human 11β-HSD1-catalyzed cortisol dehydrogenation with GuHCl. Protein concentration was approximately 5 μM in 50 mM Tris-HCl, pH 8.0. Solutions were exposed to denaturant, and protected by additives as indicated, for 16-18 h at 4° C. (∘) no additives; (□) 50 μM NADP^+; (□) BVT.24829 inhibitor and 50 μM NADP^+.
# as §1
# Target sequence in this assay (P28845 with tags, fused parts or gaps): as above
# 11β-HSD1 [4] = biological target: T1, 11β-HSD1; assay: Yield of soluble recombinant 11β-HSD1 expressed in E. coli BL21(DE3), SDS-PAGE of cleared lysate; set-up: the first 23 amino acid residues (19 for the rat variant) of the protein, which includes the distal N-terminus and the transmembrane domain, were omitted; made in house; host or cells: E. coli BL21(DE3), pET28a derivative, co-expression of GroEL/ES; conditions: GroEL/ES co-overexpression in combination with inhibitor in growth medium; estimated by SDS-PAGE
# Text: FIGS. 1A and 1B depict expression of soluble 11β-HSD1 as analyzed by SDS-PAGE. Cleared lysates from induced cultures of BL21(DE3) containing pET28a derivatives for expression of human (FIG. 1A) and rat (FIG. 1B) 11β-HSD1. Lane 1, SeeBlue Plus2 pre-stained protein standard. lane 2, overexpression of 11β-HSD1; lane 3, co-overexpression of 11β-HSD1 and GroEL/ES; lane 4, overexpression of 11β-HSD1 in presence of the inhibitor BVT.24829; lane 5, co-overexpression of 11β-HSD1 and GroEL/ES in presence of BVT.24829.
# Two different strategies were employed to optimize production of soluble 11β-HSD1. For expression of the human and rat variant, the cells were grown in shake flasks using Terrific Broth medium supplemented with 50 μg/ml kanamycin and 34 μg/ml chloramphenicol. To increase the yield of soluble human and rat 11β-HSD1, the BL21(DE3) cells were co-transformed with the plasmid pBV530, harboring the genes for the E. coli chaperonin GroEL/ES under control of the araBAD promoter. The cells were then grown at 25° C. to a cell density corresponding to an A600 value of 0.5-1.0. To induce expression of GroEL/ES, arabinose was added to a final concentration of 0.05%. 45-60 minutes after induction of the chaperonin, 0.2 mM isopropyl-β-D-thiogalactoside (IPTG) was added to initiate production of 11β-HSD1. […]
# Target sequence in this assay (P28845 with tags, fused parts or gaps): as above
# T2 sequence (Q6QLL4 with tags, fused parts or gaps): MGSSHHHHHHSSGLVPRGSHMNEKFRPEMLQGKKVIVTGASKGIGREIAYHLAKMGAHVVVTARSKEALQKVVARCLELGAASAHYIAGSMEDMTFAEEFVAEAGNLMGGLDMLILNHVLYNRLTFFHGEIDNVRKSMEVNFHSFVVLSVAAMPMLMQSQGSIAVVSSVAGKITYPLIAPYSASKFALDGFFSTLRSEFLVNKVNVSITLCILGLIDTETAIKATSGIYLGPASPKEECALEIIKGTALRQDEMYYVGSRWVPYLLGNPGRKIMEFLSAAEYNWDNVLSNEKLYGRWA
Ki values for 11β-HSD1 (11β-HSD1 [1]),"midpoint concentration, Cm, for GuHCl-induced inactivation (guinea pig 11β-HSD1; 25 μM inhibitor + cofactor 50 μM NADP+)","midpoint concentration, Cm, for GuHCl-induced inactivation (guinea pig 11β-HSD1; 25 μM inhibitor added)",Ki (11β-HSD1 [2]),"midpoint concentration, Cm, for GuHCl-induced inactivation (11β-HSD1 [3]; inhibitor + cofactor 50 μM NADP+)","midpoint concentration, Cm, for GuHCl-induced inactivation (11β-HSD1 [3]; one equivalent of inhibitor added)",improvement of yield of soluble human 11β-HSD1 (11β-HSD1 [4]),SMILES
nanomolar range,,,,,,,"Cc1c(Cl)cccc1S(=O)(=O)Nc1nc(CCN2CCOCC2=O)cs1 [BVT.3498, 3-chloro-2-methyl-N-{4-[2-(3-oxo-4-morpholinyl)ethyl]-1,3-thiazol-2-yl}benzenesulfonamide]"
micromolar range,1.0 M and 0.98 M,0.75 M,,,,,"CCCc1ccc(S(=O)(=O)Nc2ccsc2C(=O)N(CC)CC)cc1 [BVT.4584, N,N-diethyl-(3-{[(4-propylphenyl)sulfonyl]amino}thien-2-yl)carboxamide]"
nanomolar range,,,32 ± 1 nM,0.7 M and 0.71 M,0.51 M,approximately 60 fold,"Cc1sc(NS(=O)(=O)c2cccc(Cl)c2C)nc1CCN1CCOCC1=O [BVT.24829, 3-chloro-2-methyl-N-{5-methyl-4-[2-(3-oxo-4-morpholinyl)ethyl]-1,3-thiazol-2-yl}benzenesulfonamide]"

SMILES,Ki values for 11β-HSD1 (11β-HSD1 [1]),"midpoint concentration, Cm, for GuHCl-induced inactivation (guinea pig 11β-HSD1; 25 μM inhibitor + cofactor 50 μM NADP+)","midpoint concentration, Cm, for GuHCl-induced inactivation (guinea pig 11β-HSD1; 25 μM inhibitor added)",Ki (11β-HSD1 [2]),"midpoint concentration, Cm, for GuHCl-induced inactivation (11β-HSD1 [3]; inhibitor + cofactor 50 μM NADP+)","midpoint concentration, Cm, for GuHCl-induced inactivation (11β-HSD1 [3]; one equivalent of inhibitor added)",improvement of yield of soluble human 11β-HSD1 (11β-HSD1 [4])
"Cc1c(Cl)cccc1S(=O)(=O)Nc1nc(CC(=O)N2CCN(C)CC2)cs1 [BVT.2733, 3-Chloro-2-methyl-N-{4-[2-(4-methyl-1-piperazinyl)-2-oxoethyl]-1,3-thiazol-2-yl}benzenesulfonamide]",micromolar range,,,,,,
